The nature of data set [1]: Solubility of lumiflavin and FC12 in various solvents. Conditions: organic solvent or mixture. The format is physicochemical. The text has this:
The facile nanotube individualization and high QYs afforded by FC12 in certain solvents, begs the question why these solvents behave so differently. The answer to this question is believed to originate from the relative solubility differences of the two FC12 sub-moieties (i.e., isoalloxazine ring and dodecyl side chain). For this, we procured 10-methyl isoalloxazine (lumiflavin), the closest analogue to the isoalloxazine ring, and investigated its solubility characteristics versus that of FC12. Table 1 tabulates the solubilities of lumiflavin and FC12 as a function of dielectric constant (∈) of various solvents. […] As solvent polarity increases (i.e., ethylacetate, THF and acetone), their solubilities increase accordingly. […] Such behavior is believed to originate from the moderate-strong H-bonding ability of pyridine and DMF, capable of dissociating the H-bonded FC12 ribbon responsible for nanotube-dispersion. […] Two distinct regimes can be discerned, with high and low QYs for low and medium polarity solvents, respectively. For both regimes, the increase in FC12 solubility was followed by a decrease in QY. Since H-bonding is responsible for both helix stability and FC12/lumiflavine dissolution, increasing solvent polarity is expected to increase the helix dissociation constant and render FC12-wrapped nanotubes more prone to bundling and less capable to desorb 1,4-endoperoxide defects. On the basis of the observed aggregation tendencies, the low QYs in regime B appear to be dominated by nanotube bundling. In low-polarity solvents, the tight helical wrapping prevents nanotube bundling, which results in higher QY. Moreover, the proportionality of the helix dissociation constant to the FC12 solubility, explains the linear dependence of 1,4-endoperoxide defect removal along the one dimensional SWNT structure.

A short description of data set [2]: Solubility of riboflavin in neutral aqueous media (SWNT dispersion). The data set is classed as physicochemical. On the procedure: A representative procedure for dispersing SWNTs with flavin mononucleotide (FMN), FAD and riboflavin involves a 4 hours cup horn sonication of SWNTs in H2O or D2O. This is followed by 2 hours of centrifugation at 15 kg, where the upper 70 to 80% of the supernatant was decanted for further investigation. As noted above, the FIG. 1 illustrates the chemical structure of riboflavin, FMN, and FAD used for such aqueous dispersion of SWNTs. While the basic flavin moiety is hydrophobic, these flavin derivatives have water-miscible tail groups. Such amphiphilic structures together with the aforementioned strong π-π interactions with both metallic and semiconducting SWNTs, can explain the effective nanotube dispersion in aqueous media.
FIG. 6 illustrates the UV-Vis-NIR spectra of HiPco dispersions with FMN, FAD, and riboflavin. The first (E11^S) and second (E22^S) optical transitions of semiconducting SWNTs can be witnessed in […] range, respectively. Those E11^S and E22^S features are clearly apparent for the FMN and FAD spectra, which are in good accordance with that of SDBS-dispersed HiPco SWNTs. […] Upon sonication of riboflavin-SWNT in basic media (pH 11), the resulting dispersions recover the aforementioned E11^S and E22^S features (data not shown), which indicates the successful dispersion of SWNTs. […]

Results on 3 compounds are retold here after US8193430B2, “Methods for separating carbon nanotubes” (The University of Connecticut, priority 2008, dated 2012).

The structures appear in SMILES notation. In brackets after ≈: the same amount, converted by molar mass. Like-named read-outs stand apart in the source and are kept apart here.

In general, solubility refers to the concentration that dissolves in the medium under given conditions.

For the compound `CCCCCCCCCCCCn1c2nc(=O)[nH]c(=O)c-2nc2cc(C)c(C)cc21` [FC12, 10-dodecyl-7,8-dimethyl-10H-benzo[g]pteridine-2,4-dione], the solubility is 22900 µg/mL (≈ 55700 µM) in data set [1] (DMF (N,N-dimethyl formamide), in DMF, read-out: FC12 solubility); 11000 µg/mL (≈ 26900 µM) in data set [1] (THF (tetrahydrofuran), in THF, read-out: FC12 solubility); 1810 µg/mL (≈ 4410 µM) in data set [1] (in acetone, read-out: FC12 solubility); 310 µg/mL (≈ 755 µM) in data set [1] (in benzene, read-out: FC12 solubility); 510 µg/mL (≈ 1240 µM) in data set [1] (in ethylacetate, read-out: FC12 solubility); 250 µg/mL (≈ 609 µM) in data set [1] (in o-xylene, read-out: FC12 solubility). The solubility in data set [1] (in pyridine, read-out: FC12 solubility) is 70400 µg/mL (≈ 171000 µM); in data set [1] (in toluene, read-out: FC12 solubility) it was 230 µg/mL (≈ 560 µM).
Consider `Cc1cc2nc3c(=O)[nH]c(=O)nc-3n(C[C@H](O)[C@H](O)[C@H](O)CO)c2cc1C` [riboflavin], for which the “solubility in neutral aqueous media” value in data set [2] was “insolubility”.
Consider `Cc1cc2nc3c(=O)[nH]c(=O)nc-3n(C)c2cc1C` [Lumiflavin], for which the solubility in data set [1] (DMF (N,N-dimethyl formamide), in DMF, read-out: Lumiflavin solubility) came out at 317 µg/mL (≈ 1240 µM); in data set [1] (THF (tetrahydrofuran), in THF, read-out: Lumiflavin solubility), 46.2 µg/mL (≈ 180 µM); in data set [1] (in acetone, read-out: Lumiflavin solubility), 53.9 µg/mL (≈ 210 µM); in data set [1] (in benzene, read-out: Lumiflavin solubility), 4.4 µg/mL (≈ 17.2 µM); in data set [1] (in ethylacetate, read-out: Lumiflavin solubility), 14.1 µg/mL (≈ 55 µM); in data set [1] (in o-xylene, read-out: Lumiflavin solubility) it was 5.9 µg/mL (≈ 23 µM). In addition, the solubility in data set [1] (in pyridine, read-out: Lumiflavin solubility) was 529 µg/mL (≈ 2060 µM); in data set [1] (in toluene, read-out: Lumiflavin solubility), 4.3 µg/mL (≈ 16.8 µM).
